In US20210139484A1, “DIHYDROISOQUINOLINE-2(1H)-CARBOXAMIDE AND RELATED COMPOUNDS AND THEIR USE IN TREATING MEDICAL CONDITIONS” (GOSSAMER BIO SERVICES, INC., priority 2018, published 2021):

Molecular target: T1, human HPK1 protein (Homo sapiens, UniProt Q92918)
T1 construct: recombinant human HPK1 protein (a.a. 1-346) was expressed in Sf9 insect cells; GST (N); purchased Signalchem M23-11G; host or cells: Sf9 insect cells (baculovirus)
T1 sequence (Q92918 1-346): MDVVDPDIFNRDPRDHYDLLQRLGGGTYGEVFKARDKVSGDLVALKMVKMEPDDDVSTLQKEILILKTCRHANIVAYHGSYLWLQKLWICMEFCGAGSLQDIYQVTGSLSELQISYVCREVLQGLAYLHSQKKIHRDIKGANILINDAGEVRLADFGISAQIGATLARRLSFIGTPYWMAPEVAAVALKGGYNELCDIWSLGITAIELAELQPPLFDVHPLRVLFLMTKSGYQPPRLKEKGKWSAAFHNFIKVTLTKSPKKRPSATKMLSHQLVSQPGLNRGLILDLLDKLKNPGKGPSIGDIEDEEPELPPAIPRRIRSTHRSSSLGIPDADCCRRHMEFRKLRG
Test: Human HPK1 protein TR-FRET assay
Format: biochemical
Conditions: 1 mM ATP
Procedure, shortened: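 GST-tagged HPK1 (a.a. 1-346, Sf9-expressed) at 10 nM phosphorylated 100 nM ULight CREBtide with 1 mM ATP in Tris pH 7.5, MgCl2, NP-40, DTT, 1% DMSO, 60 minutes at room temperature. Phospho-Ser133 detected by Eu-antibody TR-FRET (665/615 nm ratio); IC50 from 4-parameter fit against DMSO control.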

## CC[C@H]1CN(C(=O)Nc2ccc(CN3CCN(C)CC3)c(C(F)(F)F)c2)Cc2cc(Oc3ccnc4[nH]c(C(=O)NC)cc34)cnc21 [XIV-85]
Table 20
  IC50: < 500 nM

## C[C@H]1c2cc(Oc3ccnc4[nH]c(C5(O)COC5)cc34)ccc2CCN1C(=O)Nc1ccc(CN2CCN(CCO)CC2)c(C(F)(F)F)c1 [XIII-6]
Table 20
  IC50: < 500 nM

## CCN1CCN(Cc2ccc(NC(=O)N3CCc4c(cc(F)cc4Oc4ncnn5cccc45)C3)cc2C(F)(F)F)CC1 [XI-2]
Table 20
  IC50: 500 to 5000 nM

## CC[C@@H]1CN(C(=O)Nc2ccc(CN3CCN(CCO)CC3)c(C(F)(F)F)c2)Cc2cc(Oc3ccnc4[nH]c(C5CC5)cc34)cnc21 [XIV-65]
Table 20
  IC50: < 500 nM

## Cc1cc2c(Oc3cnc4c(c3)CN(C(=O)Nc3cnc(OC5CCN(C)CC5)c(C(F)(F)F)c3)CC4C)ncnc2[nH]1 (stereo not shown) [VII-14]
Table 19
  IC50: < 500 nM

## CCN1CCN(Cc2ccc(NC(=O)N3Cc4cc(Oc5ccnc6[nH]c(C)nc56)cnc4C(C)C3)cc2C(F)(F)F)CC1 (single isomer, unassigned) [XIV-27]
Table 20
  IC50: 5000 to 10000 nM

## CC[C@@H]1CN(C(=O)Nc2cnc(OC3CCN(C)CC3)c(C(F)(F)F)c2)Cc2cc(Oc3ccnc4[nH]c(C5CC5)cc34)cnc21 [XIV-43]
Table 20
  IC50: < 500 nM

## CCN1CCN(Cc2ccc(NC(=O)N3CCc4ccc(Oc5ccnc6[nH]c(CO)cc56)cc4[C@@H]3C)cc2C(F)(F)F)CC1 [XIII-2]
Table 20
  IC50: < 500 nM

## CC[C@@H]1CN(C(=O)Nc2ccc(CN3CCNCC3)c(C(F)(F)F)c2)Cc2cc(Oc3ccnc4[nH]c(CO)cc34)cnc21 [XIV-45]
Table 20
  IC50: < 500 nM

## C[C@H]1c2cc(Oc3c(F)cnc4[nH]c(-c5cnn(C)c5)cc34)ccc2CCN1C(=O)Nc1ccc(CN2CCN(C)CC2)c(C(F)(F)F)c1 [XII-3]
Table 20
  IC50: < 500 nM

## C[C@H]1c2cc(Oc3ccnc4[nH]c(C5(O)COC5)cc34)ccc2CCN1C(=O)Nc1ccc(CN2CCN(CCO)CC2)c(C(F)F)c1 [XIII-11]
Table 20
  IC50: < 500 nM

## CN1CCC(Oc2ccc(NC(=O)N3CCc4ccc(Oc5ccnc6[nH]ccc56)cc4C3)cc2C(F)(F)F)CC1 [III-11]
Table 19
  IC50: < 500 nM

## CC[C@H]1CN(C(=O)Nc2ccc(CN3CCN(C)CC3)c(C(F)(F)F)c2)Cc2cc(Oc3ccnc4[nH]c(C(=O)N(C)C)cc34)cnc21 [compound 21, (8S)-3-[[2-(dimethylcarbamoyl)-1H-pyrrolo[2,3-b]pyridin-4-yl]oxy]-8-ethyl-N-[4-[(4-methylpiperazin-1-yl)methyl]-3-(trifluoromethyl)phenyl]-7,8-dihydro-5H-1,6-naphthyridine-6-carboxamide]
Table 20
  IC50: < 500 nM

## CC[C@H]1CN(C(=O)Nc2ccc(CN3CCN(C)CC3)c(C(F)(F)F)c2)Cc2cc(Oc3ccnc4[nH]c(C5=CCOC5)cc34)cnc21 [XIV-151]
Table 20
  IC50: < 500 nM

## CC[C@H]1CN(C(=O)Nc2ccc(CN3CCN(C)CC3)c(C(F)(F)F)c2)Cc2cc(Oc3ccnc4[nH]c(CO)cc34)cnc21 [XIV-46]
Table 20
  IC50: < 500 nM

## O=C(Nc1ccc(CN2CCNCC2)c(C(F)(F)F)c1)N1CCc2ccc(Oc3c(F)cnc4[nH]c(C5(O)CC5)cc34)cc2C1 [XVIII-5]
Table 20
  IC50: < 500 nM

## C[C@@H]1Cc2ccc(Oc3ccnc4[nH]c(C5(O)CC5)cc34)cc2CN1C(=O)Nc1cnc(CN2CCN(C)CC2)c(C(F)(F)F)c1 [XVI-3]
Table 20
  IC50: < 500 nM

## CCN1CCN(Cc2ccc(NC(=O)N3CCc4ccc(Oc5c(F)cnc6[nH]c(-c7cnn(C)c7)cc56)cc4[C@@H]3C)cc2C(F)(F)F)CC1 [XII-2]
Table 20
  IC50: < 500 nM

## CCN1CCN(Cc2ccc(NC(=O)N3Cc4cc(Oc5ccnc6[nH]c(C)cc56)c(C)nc4C(C)C3)cc2C(F)(F)F)CC1 (stereo not shown) [XVIII-2]
Table 20
  IC50: < 500 nM

## CCN1CCN(Cc2ccc(NC(=O)N3Cc4cc(Oc5ccnc6[nH]c(-c7cnn(C)c7)nc56)cnc4C(C)C3)cc2C(F)(F)F)CC1 (single isomer, unassigned) [XIV-30]
Table 20
  IC50: < 500 nM

## C[C@H]1CN(C(=O)Nc2ccc(CN3CCN(C)CC3)c(C(F)(F)F)c2)Cc2cc(Oc3ccnc4[nH]c(C5(O)CC5)cc34)cnc21 [XIV-97]
Table 20
  IC50: < 500 nM

## CCN1CCN(Cc2ccc(NC(=O)N3CCc4ccc(Oc5ccnc6[nH]c(C7CC7)cc56)cc4[C@@H]3C)cc2C(F)(F)F)CC1 [V-26]
Table 19
  IC50: < 500 nM

## CC[C@H]1CN(C(=O)Nc2ccc(CN3CCN(C)CC3)c(C(F)(F)F)c2)Cc2cc(Oc3ccnc4[nH]c(C(=O)N5CC[C@H](O)C5)cc34)cnc21 [XIV-109]
Table 20
  IC50: < 500 nM

## CC[C@H]1CN(C(=O)Nc2ccc(CN3CCN(C)CC3)c(C(F)(F)F)c2)Cc2cc(Oc3ccnc4[nH]c(-c5noc(=O)[nH]5)cc34)cnc21 [XIV-132]
Table 20
  IC50: < 500 nM

## C[C@H]1c2cc(Oc3ccnc4[nH]c(CO)cc34)ccc2CCN1C(=O)Nc1ccc(CN2CCN(CCO)CC2)c(C(F)(F)F)c1 [XIII-5]
Table 20
  IC50: < 500 nM

## Cc1cc2c(Oc3cnc4c(c3)CN(C(=O)Nc3ccc(CN5CCN(C)CC5)c(C(F)(F)F)c3)C[C@H]4C)ccnc2[nH]1 [XIV-91]
Table 20
  IC50: < 500 nM

## CC[C@H]1CN(C(=O)Nc2ccc(CN3CCNCC3)c(C(F)(F)F)c2)Cc2cc(Oc3ccnc4[nH]c(-c5noc(=O)[nH]5)cc34)cnc21 [XIV-135]
Table 20
  IC50: < 500 nM

## CC[C@H]1CN(C(=O)Nc2ccc(CN3CCNCC3)c(C(F)(F)F)c2)Cc2cc(Oc3c(F)cnc4[nH]c(C(=O)N(C)C)cc34)cnc21 [XIV-145]
Table 20
  IC50: < 500 nM

## CCN1CCN(Cc2ccc(NC(=O)N3CCc4ccc(Oc5ccnc6[nH]ccc56)cc4C3C)cc2C(F)(F)F)CC1 (stereo not shown) [IV-1]
Table 19
  IC50: 500 to 5000 nM

## CCN1CCN(Cc2ccc(NC(=O)N3CCc4ccc(Oc5ccnc6[nH]ccc56)cc4[C@@H]3C)cc2C(F)F)CC1 [V-4]
Table 19
  IC50: < 500 nM

## CCN1CCN(Cc2ccc(NC(=O)N3Cc4cc(Oc5ccnc6[nH]c(C)cc56)c(F)cc4C(C)C3)cc2C(F)(F)F)CC1 (stereo not shown) [IV-28]
Table 19
  IC50: < 500 nM

## CCN1CCN(Cc2ccc(NC(=O)N3Cc4cc(Oc5ccnc6[nH]c(C)cc56)cnc4C(C)C3)cc2C(F)(F)F)CC1 (single isomer, unassigned) [VII-5]
Table 19
  IC50: < 500 nM

## CCN1CCN(Cc2ccc(NC(=O)N3CCc4ccc(Oc5ncnn6cc(C#N)cc56)cc4[C@@H]3C)cc2C(F)(F)F)CC1 [V-9]
Table 19
  IC50: < 500 nM

## CCN1CCN(Cc2ccc(NC(=O)N3Cc4cc(Oc5ccnc6[nH]c(C)cc56)ccc4C(C)C3)cc2C(F)(F)F)CC1 (stereo not shown) [IV-18]
Table 19
  IC50: < 500 nM

## CC[C@@H]1CN(C(=O)Nc2ccc(CN3CCN(CCO)CC3)c(C(F)F)c2)Cc2cc(Oc3ncnc4[nH]c(C5CC5)cc34)ccc21 [XV-42]
Table 20
  IC50: < 500 nM

## CC[C@H]1CN(C(=O)Nc2ccc(CN3CCNCC3)c(C(F)(F)F)c2)Cc2cc(Oc3ncnn4cc(C(=O)N(C)C)cc34)cnc21 [XIV-146]
Table 20
  IC50: < 500 nM

## C[C@H]1c2cc(Oc3ccnc4[nH]ccc34)ccc2CCN1C(=O)Nc1ccc(OC2CCNCC2)c(C(F)F)c1 [V-14]
Table 19
  IC50: 500 to 5000 nM

## C[C@@H]1Cc2ccc(Oc3ccnc4[nH]c(C(=O)N(C)C)cc34)cc2CN1C(=O)Nc1cnc(OC2CCN(C)CC2)c(C(F)(F)F)c1 [XVI-7]
Table 20
  IC50: < 500 nM

## CCN1CCN(Cc2ccc(NC(=O)N3CCc4nc(C)c(Oc5ccnc6[nH]ccc56)cc4C3C)cc2C(F)(F)F)CC1 (stereo not shown) [IV-10]
Table 19
  IC50: 500 to 5000 nM

## CCN1CCN(Cc2ccc(NC(=O)N3Cc4cc(Oc5c(F)cnc6[nH]c(CO)cc56)cnc4[C@@H](C)C3)cc2C(F)(F)F)CC1 [XIV-95]
Table 20
  IC50: < 500 nM

## CC[C@@H]1CN(C(=O)Nc2ccc(CN3CCN(CC)CC3)c(C(F)(F)F)c2)Cc2cc(Oc3ccnc4[nH]c(C#N)cc34)cnc21 [XIV-19]
Table 20
  IC50: < 500 nM

## CN1CCC(Oc2ccc(NC(=O)N3CCc4ccc(Oc5ncnn6cccc56)cc4C3)cc2C(F)(F)F)CC1 [II-16]
Table 19
  IC50: 500 to 5000 nM

## CCN1CCN(Cc2ccc(NC(=O)N3Cc4cc(Oc5ccnc6[nH]c(C)cc56)ccc4C(C)C3)cc2C(F)(F)F)CC1 (stereo not shown) [IV-19]
Table 19
  IC50: < 500 nM

## CN1CC[C@@H](Oc2ncc(NC(=O)N3CCc4ccc(Oc5c(F)cnc6[nH]c(-c7cnn(C)c7)cc56)cc4C3)cc2C(F)(F)F)[C@@H](O)C1 [XII-4]
Table 20
  IC50: < 500 nM

## C[C@H]1CN(C(=O)Nc2ccc(CN3CCN(C)CC3)c(C(F)F)c2)Cc2cc(Oc3ccnc4[nH]c(C5(O)COC5)cc34)ccc21 [XV-33]
Table 20
  IC50: < 500 nM

## CCN1CCN(Cc2ccc(NC(=O)N3CCc4ccc(Oc5ccnc(C#N)c5)cc4[C@@H]3C)cc2C(F)(F)F)CC1 [V-11]
Table 19
  IC50: 500 to 5000 nM

## CC1CN(C(=O)Nc2cnc(OC3CCN(C)CC3)c(C(F)(F)F)c2)Cc2cc(Oc3ccnc4[nH]ncc34)cnc21 (stereo not shown) [VII-9]
Table 19
  IC50: 500 to 5000 nM

## CCC1CN(C(=O)Nc2ccc(CN3CCN(CC)CC3)c(C(F)(F)F)c2)Cc2cc(Oc3ccnc4[nH]c(C5=CCOCC5)cc34)cnc21 (stereo not shown) [XIV-61]
Table 20
  IC50: < 500 nM

## CCN1CCN(Cc2ccc(NC(=O)N3CC4CCC3c3cc(Oc5ccnc6[nH]ccc56)ccc34)cc2C(F)(F)F)CC1 (stereo not shown) [compound 14, 7-((1H-pyrrolo[2,3-b]pyridin-4-yl)oxy)-N-(4-((4-ethylpiperazin-1-yl)methyl)-3-(trifluoromethyl)phenyl)-1,2,3,4-tetrahydro-1,4-(epiminomethano)naphthalene-10-carboxamide]
Table 19
  IC50: 500 to 5000 nM

## Cc1cc2c(Oc3ccc4c(c3)[C@H](C)N(C(=O)Nc3cnc(OC5CCN(C)CC5O)c(C(F)(F)F)c3)CC4)ccnc2[nH]1 (stereo in doubt) [VI-9]
Table 19
  IC50: 500 to 5000 nM

## Cc1cc2c(Oc3ccc4c(c3)[C@H](C)N(C(=O)Nc3cnc(Oc5ccncc5)c(C(F)(F)F)c3)CC4)ccnc2[nH]1 [VI-14]
Table 19
  IC50: 5000 to 10000 nM

## CCN1CCN(Cc2ccc(NC(=O)N3CCc4ccc(Nc5ncnn6cccc56)cc4C3)cc2C(F)(F)F)CC1 [compound 11, N-(4-((4-Ethylpiperazin-1-yl)methyl)-3-(trifluoromethyl)phenyl)-7-(pyrrolo[2,1-f][1,2,4]triazin-4-ylamino)-3,4-dihydroisoquinoline-2(1H)-carboxamide]
Table 19
  IC50: 500 to 5000 nM
